{"source": "patent US9101577B2", "about": "“Analgesic pharmaceutical composition for oral administration” (Warszawski Uniwersytet Medyczny, priority 2011, dated 2015)", "key": {"[1]": {"tested_on": "Male Wistar rats", "test": "Acute activity after single p.o. administration, paw withdrawal test (Randall and Selitto), % of analgesia", "type": "in vivo, rat", "conditions": "for analgesic activity on separate administration (oxycodone study): oxycodone 5 mg/kg; for analgesic activity on separate administration (tramadol study): tramadol 125 mg/kg", "method": "(§1) Male Wistar rats (250-300 g) were housed in a room maintained at a temperature of 20±2° C. under 12 h-12 h light-dark cycles. The animals had free access to food and water. Experimental groups consisted of six rats.\n(§2) Drugs • Morphine at a dose of 15 mg/kg, codeine at a dose of 175 mg/kg, tramadol at a dose of 125 mg/kg and oxycodone at a dose of 5 mg/kg were dissolved in distilled water; • Dihydrocodeine at a dose of 50 mg/kg was suspended in 1% solution of methylcellulose; • Magnesium lactate (in micronized form)—at a dose of 15 mg magnesium ions/kg (150 mg of magnesium lactate/kg) was suspended in 0.5% solution of methylcellulose; • Magnesium lactate in normal (non-micronized) form—at doses of 15 or 30 mg magnesium ions/kg (150 or 300 mg of magnesium lactate/kg, respectively) was suspended in 0.5% solution of methylcellulose; • Magnesium citrate (in micronized and normal form)—at a dose of 15 mg magnesium ions/kg (112 mg of magnesium citrate/kg) was dissolved in distilled water; • Magnesium hydroaspartate (in micronized and normal form)—at a dose of 15 mg magnesium ions/kg (216 mg of magnesium hydroaspartate/kg) was suspended in 0.5% solution of methylcellulose; • Magnesium chloride (in micronized and normal form)—at a dose of 15 mg magnesium ions/kg (59.5 mg of magnesium chloride/kg) was dissolved in distilled water; • Control animals received a 0.5% solution of methylcellulose, a 1% solution of methylcellulose and distilled water, respectively, according to the same time schedule.\nMagnesium salts and investigated opioids were administered concomitantly.\nThe micronized form of magnesium salts used in experiments contains particles of magnesium compounds of size D90<50 μm.\nThe normal magnesium salts form used in experiments contains particles of sizes commonly available in the market.\nAcute activity of investigated drugs was measured in short time periods (from 5 to 300 min) after single administration.\n(§3) All drugs were administered per os (p.o.); literally—orally. However, in practice, drugs were administered intragastric via a gastric tube.\n(§4) Changes in pain thresholds were determined using a mechanical stimuli—the modification of the classic paw withdrawal test described by Randall and Selitto [1957]. In order to produce mechanical stimulation, progressively increasing pressure was applied to the dorsal surface of the rat's paw using an analgesymeter. The instrument used increased the force on the paw at a rate of 32 grams per second. The nociceptive threshold was defined as force in grams, at which the rat attempted to withdraw its right hindpaw and values of pressure were recorded at this very moment. At least two observers controlled the response.\n(§5) Nociceptive thresholds (average of two trials) measured for each animal before single administration of investigated drugs (measurement of acute activity) or in day 0 before the first administration (measurement of prolonged activity) constituted the baseline pain threshold—A. Next, measurements of the withdrawal threshold to mechanical stimuli were performed at 5, 15, 30, 60, 90, 120, 180, 240, 300 min after drug administration (measurements of acute activity) or every day before drug administration (measurements of prolonged activity)—B.\n(§6) In all experimental sessions (i.e. every day, each drug investigated) values of thresholds obtained (B) were compared to baseline (A).\n(§7) Changes in pain threshold were calculated as a percent of baseline value according to the following formula:\n(§8) [formula] • C—% of analgesia; A—pressure (in g), baseline pain threshold; B—pressure (in g) in consecutive measurements.\n(§9) Percents of analgesia values calculated as above for individual animals were subsequently used to calculate average values in particular experimental groups and for statistical analysis.\nThe results are expressed as mean values±standard deviation of the mean (±S.E.M.)."}, "[2]": {"tested_on": "Male Wistar rats", "test": "Prolonged activity on repeated daily p.o. administration (7 or 10 days), paw withdrawal test (Randall and Selitto)", "type": "in vivo, rat", "conditions": "for analgesic activity on separate administration, 7 days (oxycodone study): oxycodone 5 mg/kg; for pain threshold on separate administration, 10 days (tramadol study): tramadol 125 mg/kg", "method": "as §1, §2\nProlonged activity of the investigated drugs was measured the following day after initial administration, but before the next administration as well as after cessation of administration. Drugs were administered for seven consecutive days (administration of morphine, codeine, dihydrocodeine, oxycodone) or for ten days (administration of tramadol).\nas §3, §4, §5, §6, §7, §8, §9\nThe results are expressed as mean values±standard […] of the mean (±S.E.M.). The statistical significance of differences between groups was evaluated by Student's t-test. p≦0.05 was accepted as statistically significant."}, "[3]": {"conditions": "single administration, 15 mg magnesium ions/kg p.o. with dihydrocodeine 50 mg/kg p.o."}, "[4]": {"conditions": "single administration, 15 mg magnesium ions/kg p.o. with morphine 15 mg/kg p.o."}, "[5]": {"conditions": "single administration, 15 mg magnesium ions/kg p.o. with oxycodone 5 mg/kg p.o."}, "[6]": {"conditions": "single administration, 15 mg magnesium ions/kg p.o. with tramadol 125 mg/kg p.o."}, "[7]": {"conditions": "single separate administration p.o., magnesium salts 15 mg magnesium ions/kg"}, "[8]": {"conditions": "30 mg magnesium ions/kg p.o. with codeine 175 mg/kg p.o., 7 days"}, "[9]": {"conditions": "30 mg magnesium ions/kg p.o. with morphine 15 mg/kg p.o., 7 days"}, "[10]": {"conditions": "separate administration p.o., magnesium lactate micronized 15 or normal 30 mg magnesium ions/kg"}}}
{"smiles": "CC(O)C(=O)[O-].CC(O)C(=O)[O-].[Mg+2]", "note": "(stereo not shown) [normal magnesium lactate, Magnesium lactate]", "values": [{"measurement": "effect on analgesic activity of codeine", "setting": "[1]; single administration, 15 mg magnesium ions/kg p.o. with codeine 175 mg/kg p.o.", "value": "significantly enhanced the analgesic activity of codeine"}, {"measurement": "activity on dihydrocodeine analgesia in comparison (to micronized form / to magnesium lactate)", "setting": "[1]; [3]", "value": "somewhat weaker"}, {"measurement": "effect on dihydrocodeine analgesia", "setting": "[1]; [3]", "value": "significantly enhanced dihydrocodeine analgesia"}, {"measurement": "time course of activity on dihydrocodeine analgesia", "setting": "[1]; [3]", "value": "gradually increased and reached a maximum between min 45 and 90 of the measurements and then became weaker by min 210"}, {"measurement": "effect on morphine analgesia", "setting": "[1]; [4]", "value": "significantly enhanced morphine analgesia"}, {"measurement": "enhancement of morphine analgesia lasted up to", "setting": "[1]; [4]", "value": 180, "unit": "min"}, {"measurement": "time at which enhancement of morphine analgesia appeared", "setting": "[1]; [4]", "value": 60, "unit": "min"}, {"measurement": "effect on oxycodone analgesia", "setting": "[1]; [5]", "value": "significantly enhanced oxycodone analgesia"}, {"measurement": "time at which activity on oxycodone analgesia appeared", "setting": "[1]; [5]", "value": 5, "unit": "min"}, {"measurement": "time course of activity on oxycodone analgesia", "setting": "[1]; [5]", "value": "weakened by min 15 and 30 and was maintained up to min 45"}, {"measurement": "activity on tramadol analgesia in comparison (to micronized form / to magnesium chloride)", "setting": "[1]; [6]", "value": "weaker than the micronized form"}, {"measurement": "effect on antinociceptive activity of tramadol", "setting": "[1]; [6]", "value": "increased antynociceptive activity of tramadol"}, {"measurement": "analgesic activity on separate administration (codeine study)", "setting": "[1]; single separate administration p.o., codeine 175 mg/kg, magnesium salts 15 mg magnesium ions/kg", "value": "did not exhibit analgesic activity"}, {"measurement": "analgesic activity / pain perception threshold on separate administration (dihydrocodeine study)", "setting": "[1]; single separate administration p.o., dihydrocodeine 50 mg/kg, magnesium salts 15 mg magnesium ions/kg", "value": "did not exhibit analgesic activity"}, {"measurement": "analgesic activity / pain threshold when administered alone (morphine study)", "setting": "[1]; single separate administration p.o., morphine 15 mg/kg, magnesium salts 15 mg magnesium ions/kg", "value": "Neither morphine nor magnesium lactate and chloride in micronized or normal form administered alone showed analgesic activity"}, {"measurement": "analgesic activity on separate administration (oxycodone study)", "setting": "[1]; [7]", "value": "showed no analgesic activity"}, {"measurement": "analgesic activity on separate administration (tramadol study)", "setting": "[1]; [7]", "value": "did not exhibit analgesic activity"}, {"measurement": "activity on codeine analgesia compared to micronized form", "setting": "[2]; [8]", "value": "significantly weaker"}, {"measurement": "days on which activity on codeine analgesia appeared", "setting": "[2]; [8]", "value": "only appeared on days 6 and 7"}, {"measurement": "activity on dihydrocodeine analgesia compared to micronized form", "setting": "[2]; 30 mg magnesium ions/kg p.o. with dihydrocodeine 50 mg/kg p.o., 7 days", "value": "significantly weaker in comparison to the micronized form"}, {"measurement": "activity on morphine analgesia compared to micronized form", "setting": "[2]; [9]", "value": "much weaker"}, {"measurement": "days on which activity on morphine analgesia appeared", "setting": "[2]; [9]", "value": "only on days 6 and 7"}, {"measurement": "analgesic activity on separate administration, 7 days (codeine study)", "setting": "[2]; separate administration p.o., codeine 175 mg/kg, magnesium lactate micronized 15 or normal 30 mg magnesium ions/kg", "value": "did not exhibit analgesic activity"}, {"measurement": "pain threshold on separate administration, 7 days (dihydrocodeine study)", "setting": "[2]; separate administration p.o., dihydrocodeine 50 mg/kg, magnesium lactate micronized 15 or normal 30 mg magnesium ions/kg", "value": "did not alter the pain threshold"}, {"measurement": "pain threshold on separate administration, 7 days (morphine study)", "setting": "[2]; separate administration p.o., morphine 15 mg/kg, magnesium lactate micronized 15 or normal 30 mg magnesium ions/kg", "value": "did not alter the pain threshold"}, {"measurement": "analgesic activity on separate administration, 7 days (oxycodone study)", "setting": "[2]; [10]", "value": "did not exhibit analgesic activity"}, {"measurement": "pain threshold on separate administration, 10 days (tramadol study)", "setting": "[2]; [10]", "value": "did not alter the pain threshold"}]}
{"smiles": "COc1ccc2c3c1O[C@H]1C(=O)CC[C@@]4(O)[C@@H](C2)N(C)CC[C@]314", "note": "[oxycodone, reference compound]", "values": [{"measurement": "analgesic activity on separate administration (oxycodone study)", "setting": "[1]; [7]", "value": "showed no analgesic activity"}, {"measurement": "analgesic activity on separate administration, 7 days (oxycodone study)", "setting": "[2]; [10]", "value": "did not exhibit analgesic activity"}]}
{"smiles": "COc1cccc(C2(O)CCCCC2CN(C)C)c1", "note": "(stereo not shown) [tramadol, reference compound]", "values": [{"measurement": "analgesic activity on separate administration (tramadol study)", "setting": "[1]; [7]", "value": "did not exhibit analgesic activity"}, {"measurement": "pain threshold on separate administration, 10 days (tramadol study)", "setting": "[2]; [10]", "value": "insignificantly intensified the threshold for mechanical nociceptive stimuli from days 6 to 10"}]}
